The text below walks through data of patent US12257243B2, “5-hydroxy-7-oxabicyclo[2.2.1]heptane-2-carboxamide derivatives for inducing chondrogenesis for treating joint damage” (NOVARTIS AG, priority 2018, dated 2025).

For this test, the system named is ALP in normal human articular chondrocytes (NHACs). Kind of test: Alkaline Phosphatase (ALP) activity assay (staining and quantitation) in NHACs, prevention of chondrocyte hypertrophy. In kind it is cell-based. To be noted: Chondrocyte, 288 h, human IL-1 beta 10 ng/mL, 12 days; for pIC50: Fast Blue RR staining, high content imaging, read-out: ALP in NHAC IC50; for Emax: value in parentheses, read-out: ALP in NHAC (% Efficacy). Here is the method: The compounds of the present invention were evaluated in the Alkaline Phosphatase (ALP) activity assay to determine the ability of the compounds to prevent chondrocyte hypertrophy in normal human articular chondrocytes (NHACs).
Normal human articular chondrocytes (NHACs) were purchased from PromoCell (Heidelberg, Germany) and grown in Chondrocyte Growth Medium (CGM; Lonza, Walkersville, Md.).
NHACs were expanded in Chondrocyte Growth Medium (CGM) from Lonza until they reached a 60-80% confluency. To initiate differentiation, 7,500 cells were plated/well with indicated test compound dose in 384-well Cell Carrier Ultra plates (Perkin Elmer) with DMEM (SH30022—HyClone) containing 10% FBS (35-015-CV—Corning), 1% Pen/Strep antibiotics (SV30010—HyClone), and 1% Normocin (50 mg/mL—InvivoGen). Cells with test compounds were incubated at 37° C., 5% CO2 for 5 hours and then added human IL-1 beta (AF-200-1B—Peprotech) to each well at a final concentration of 10 ng/mL and incubated at 37° C., 5% CO2 for 12 days.
To detect the presence of hypertrophic cells, NHACs were fixed with 4% paraformaldehyde and Hoechst 33342 (Invitrogen) dye for 30 minutes, rinsed in PBS, then stained with Fast Blue RR Salt (F0500—Sigma) with Naphthol AS-MX Phosphate Alkaline Solution, 0.25% (855—Sigma-Aldrich).
The staining was imaged by fluorescent microscopy, using the 561 nm wavelength, and/or quantified by high content imaging with the Image press Confocal (Molecular Devices, Sunnyvale, Calif.). Data analyses were performed with a customized multiwavelength cell-scoring application.

SMILES strings stand for the structures. pIC50: −log10 of the molar value.

Consider `CCOc1cc(C(F)(F)F)cc(NC(=O)[C@@H]2[C@@H](c3cn(C)nc3C(F)(F)F)[C@H]3O[C@@H]2C[C@@H]3O)n1` (racemic) [Example 39, rac-(1R,2R,3S,4R,5S)—N-(6-ethoxy-4-(trifluoromethyl)pyridin-2-yl)-5-hydroxy-3-(1-methyl-3-(trifluoromethyl)-1H-pyrazol-4-yl)-7-oxabicyclo[2.2.1]heptane-2-carboxamide], for which the negative logarithm of the IC50 (pIC50) was 5.40 and the Emax is 64%.
The matching figures for `Cn1cc([C@H]2[C@H]3O[C@H](C[C@@H]3O)[C@@H]2C(=O)Nc2cccc(C(F)(F)F)c2)c(C(F)(F)F)n1` (racemic) [Example 32, rac-(1R,2R,3S,4R,5S)-5-hydroxy-3-(1-methyl-3-(trifluoromethyl)-1H-pyrazol-4-yl)-N-(3-(trifluoromethyl)phenyl)-7-oxabicyclo[2.2.1]heptane-2-carboxamide]: 5.14 and 78%.
The matching figures for `Cc1c(NC(=O)[C@@H]2[C@@H](c3cn(C)nc3C(F)(F)F)[C@H]3O[C@@H]2C[C@@H]3O)cccc1C(F)(F)F` (racemic) [Example 42, rac-(1R,2R,3S,4R,5S)-5-hydroxy-3-(1-methyl-3-(trifluoromethyl)-1H-pyrazol-4-yl)-N-(2-methyl-3-(trifluoromethyl)phenyl)-7-oxabicyclo[2.2.1]heptane-2-carboxamide]: below 4.52 and 21%.
The matching figures for `Cc1ccc(NC(=O)[C@@H]2[C@@H](c3cccc(C(F)(F)F)c3)[C@H]3O[C@@H]2C[C@@H]3O)cc1C(F)(F)F` (racemic) [Example 12, rac-(1R,2R,3S,4R,5S)-5-hydroxy-N-(4-methyl-3-trifluoromethylphenyl)-3-(3-(trifluoromethyl)phenyl)-7-oxabicyclo[2.2.1]heptane-2-carboxamide]: 5.01 and 102%.
For the compound `O=C(Nc1ccc(C(F)(F)F)c(Cl)c1)[C@@H]1[C@@H](c2cccc(C(F)(F)F)c2)[C@H]2O[C@@H]1C[C@@H]2O` (racemic) [Example 2, rac-(1R,2R,3S,4R,5S)—N-(3-chloro-4-(trifluoromethylphenyl)-5-hydroxy-3-(3-(trifluoromethyl)phenyl)-7-oxabicyclo[2.2.1]heptane-2-carboxamide], the negative logarithm of the IC50 (pIC50) was 5.08 and the Emax came out at 102%.
In the same order, the values of `O=C(Nc1cc(C(F)(F)F)c(Cl)cn1)[C@@H]1[C@@H](c2cccc(C(F)(F)F)c2)[C@H]2O[C@@H]1C[C@@H]2O` (racemic) [Example 6, rac-(1R,2R,3S,4R 5S)—N-(5-chloro-4-(trifluoromethyl)pyridin-2-yl)-5-hydroxy-3-(3-(trifluoromethyl)phenyl)-7-oxabicyclo[2.2.1]heptane-2-carboxamide] are below 4.52 and 38%.
In the same order, the values of `Cn1cc([C@H]2[C@H]3O[C@H](C[C@@H]3O)[C@@H]2C(=O)Nc2cc(C(F)(F)F)cc(C(F)(F)F)c2)c(C(F)(F)F)n1` (racemic) [Example 50, rac-(1R,2R,3S,4R,5S)—N-(3,5-bis(trifluoromethyl)phenyl)-5-hydroxy-3-(1-methyl-3-(trifluoromethyl)-1H-pyrazol-4-yl)-7-oxabicyclo[2.2.1]heptane-2-carboxamide] are 5.64 and 101%.
In the same order, the values of `O=C(Nc1ccc(C(F)(F)F)nc1)[C@@H]1[C@@H](c2cccc(C(F)(F)F)c2)[C@H]2O[C@@H]1C[C@@H]2O` (racemic) [Example 27, rac-(1R,2R,3S,4R,5S)-5-hydroxy-3-(3-(trifluoromethyl)phenyl)-N-(6-(trifluoromethyl)pyridin-3-yl)-7-oxabicyclo[2.2.1]heptane-2-carboxamide] are below 4.52 and 38%.
